PubChem BioAssay (NCI)
Values joined by “and” are separate entries in the source; they are usually repeats but may differ in a detail not shown here. Identical values can stand only once.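 Test compounds were applied to cells in 96-well plates for 48 hours at 5 doses. GI50 = concentration required for 50% inhibition of growth. TGI denotes the concentration required for complete inhibition of growth.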

Legend:
Test in all cases: NCI-60 cell line screen, 48 h
[1] = system: SR leukemia
[2] = system: SF-295 CNS
[3] = system: HCT-15 colon
[4] = system: DU-145 prostate
[5] = system: A549 NSCLC
[6] = system: OVCAR-4 ovarian
[7] = system: EKVX NSCLC
[8] = system: OVCAR-3 ovarian
[9] = system: 786-0 renal
[10] = system: NCI-H226 lung
[11] = system: ACHN renal
[12] = system: TK-10 renal
[13] = system: U251 CNS
[14] = system: IGROV1 ovarian
[15] = system: OVCAR-5 ovarian
[16] = system: NCI-H460 lung
[17] = system: RXF 393 renal
[18] = system: PC-3 prostate
[19] = system: HT29 colon
[20] = system: KM12 colon
[21] = system: SN12C renal
[22] = system: LOX IMVI melanoma
[23] = system: MCF7 breast
[24] = system: HCC-2998 colon
[25] = system: HL-60(TB) leukemia
[26] = system: UACC-62 melanoma
[27] = system: MDA-MB-435
[28] = system: SK-MEL-2 melanoma
[29] = system: UO-31 renal
[30] = system: SF-268 CNS
[31] = system: HOP-92 NSCLC
[32] = system: SK-OV-3 ovarian
[33] = system: OVCAR-8 ovarian
[34] = system: MDA-N
[35] = system: UACC-257 melanoma
[36] = system: SNB-19 CNS
[37] = system: SW-620 colon
[38] = system: MALME-3M melanoma
[39] = system: BT-549 breast
[40] = system: NCI-H23 lung
[41] = system: SNB-75 CNS
[42] = system: SF-539 CNS
[43] = system: MDA-MB-231 breast
[44] = system: M14 melanoma
[45] = system: NCI-H522 lung
[46] = system: HS 578T breast
[47] = system: NCI/ADR-RES ovarian
[48] = system: T-47D breast
[49] = system: HCT-116 colon
[50] = system: CAKI-1 renal
[51] = system: A498 renal
[52] = system: SK-MEL-5 melanoma
[53] = system: K-562 leukemia
[54] = system: COLO 205 colon
[55] = system: CCRF-CEM leukemia
[56] = system: MOLT-4 leukemia
[57] = system: SK-MEL-28 melanoma
[58] = system: RPMI-8226 leukemia
[59] = system: HOP-62 NSCLC

Cc1[nH]c(=O)c2oc3cc4ccccc4cc3c2c1C(=O)O
TGI [1]: > 10 µM | TGI [2]: > 10 µM | TGI [3]: > 10 µM | TGI [4]: > 10 µM | TGI [5]: > 10 µM | TGI [6]: > 10 µM | TGI [7]: > 10 µM | TGI [8]: > 10 µM | TGI [9]: > 10 µM | TGI [10]: > 10 µM | TGI [11]: > 10 µM | TGI [12]: > 10 µM | TGI [13]: > 10 µM | TGI [14]: > 10 µM | TGI [15]: > 10 µM | TGI [16]: > 10 µM | TGI [17]: > 10 µM | TGI [18]: > 10 µM | TGI [19]: > 10 µM | TGI [20]: > 10 µM | TGI [21]: > 10 µM | TGI [22]: > 10 µM | TGI [23]: > 10 µM | TGI [24]: > 10 µM | TGI [25]: > 10 µM | TGI [26]: > 10 µM | TGI [27]: > 10 µM | TGI [28]: > 10 µM | TGI [29]: > 10 µM | TGI [30]: > 10 µM | TGI [31]: > 10 µM | TGI [32]: > 10 µM | TGI [33]: > 10 µM | TGI [34]: > 10 µM | TGI [35]: > 10 µM | TGI [36]: > 10 µM | TGI [37]: > 10 µM | TGI [38]: > 10 µM | TGI [39]: > 10 µM | TGI [40]: > 10 µM | TGI [41]: > 10 µM | TGI [42]: > 10 µM | TGI [43]: > 10 µM | TGI [44]: > 10 µM | TGI [45]: > 10 µM | TGI [46]: > 10 µM | TGI [47]: > 10 µM | TGI [48]: > 10 µM

O=c1c2sc3ccccc3sc=2c(=O)c2c(Cl)c(Cl)c(Cl)c(Cl)c12
TGI [1]: > 100 µM | TGI [2]: > 100 µM | TGI [49]: > 100 µM | TGI [3]: > 100 µM | TGI [4]: > 100 µM | TGI [5]: > 100 µM | TGI [6]: > 100 µM | TGI [50]: > 100 µM | TGI [7]: > 100 µM | TGI [51]: > 100 µM | TGI [8]: > 100 µM | TGI [9]: > 100 µM | TGI [10]: > 100 µM | TGI [11]: > 100 µM | TGI [12]: > 100 µM | TGI [13]: > 100 µM | TGI [14]: > 100 µM | TGI [15]: > 100 µM | TGI [52]: > 100 µM | TGI [16]: > 100 µM | TGI [17]: > 100 µM | TGI [53]: > 100 µM | TGI [18]: > 100 µM | TGI [19]: > 100 µM | TGI [20]: > 100 µM | TGI [21]: > 100 µM | TGI [54]: > 100 µM | TGI [23]: > 100 µM | TGI [24]: > 100 µM | TGI [26]: > 100 µM | TGI [27]: > 100 µM | TGI [28]: > 100 µM | TGI [55]: > 100 µM | TGI [29]: > 100 µM | TGI [56]: > 100 µM | TGI [30]: > 100 µM | TGI [57]: > 100 µM | TGI [32]: > 100 µM | TGI [33]: > 100 µM | TGI [34]: > 100 µM | TGI [58]: > 100 µM | TGI [35]: > 100 µM | TGI [36]: > 100 µM | TGI [37]: > 100 µM | TGI [38]: > 100 µM | TGI [39]: > 100 µM | TGI [40]: > 100 µM | TGI [59]: > 100 µM | TGI [41]: > 100 µM | TGI [43]: > 100 µM | TGI [44]: > 100 µM | TGI [45]: > 100 µM | TGI [46]: > 100 µM | TGI [47]: > 100 µM | TGI [48]: > 100 µM

CN(Cc1cccc2ccsc12)/N=C\c1ccc(Cl)cc1
TGI [1]: > 100 µM | TGI [2]: > 100 µM | TGI [49]: > 100 µM | TGI [3]: > 100 µM | TGI [4]: > 100 µM | TGI [5]: > 100 µM | TGI [6]: > 100 µM | TGI [50]: > 100 µM | TGI [7]: > 100 µM | TGI [51]: > 100 µM | TGI [8]: 48.3 µM | TGI [9]: > 100 µM | TGI [10]: > 100 µM | TGI [11]: > 100 µM | TGI [12]: > 100 µM | TGI [13]: > 100 µM | TGI [14]: > 100 µM | TGI [15]: > 100 µM | TGI [52]: 41.6 µM | TGI [16]: > 100 µM | TGI [17]: > 100 µM | TGI [53]: > 100 µM | TGI [18]: > 100 µM | TGI [19]: > 100 µM | TGI [20]: > 100 µM | TGI [21]: > 100 µM | TGI [54]: > 100 µM | TGI [22]: > 100 µM | TGI [23]: > 100 µM | TGI [24]: > 100 µM | TGI [26]: > 100 µM | TGI [27]: > 100 µM | TGI [55]: > 100 µM | TGI [29]: > 100 µM | TGI [56]: > 100 µM | TGI [30]: > 100 µM | TGI [31]: > 100 µM | TGI [57]: > 100 µM | TGI [32]: > 100 µM | TGI [33]: > 100 µM | TGI [34]: > 100 µM | TGI [35]: 95.4 µM | TGI [36]: > 100 µM | TGI [37]: > 100 µM | TGI [38]: > 100 µM | TGI [39]: > 100 µM | TGI [40]: > 100 µM | TGI [59]: > 100 µM | TGI [41]: > 100 µM | TGI [43]: > 100 µM | TGI [44]: > 100 µM | TGI [45]: > 100 µM | TGI [46]: > 100 µM | TGI [47]: > 100 µM | TGI [48]: > 100 µM

Cc1cnc2[nH]c(-c3cccc4ccccc34)cc(=O)c2c1
TGI [1]: > 100 µM | TGI [2]: > 100 µM | TGI [49]: > 100 µM | TGI [3]: 0.935 µM | TGI [4]: > 100 µM | TGI [5]: > 100 µM | TGI [6]: > 100 µM | TGI [50]: > 100 µM | TGI [7]: > 100 µM | TGI [51]: 0.00286 µM | TGI [9]: > 100 µM | TGI [10]: 59.9 µM | TGI [11]: 64.6 µM | TGI [13]: 0.0129 µM | TGI [14]: 43.5 µM | TGI [15]: > 100 µM | TGI [16]: > 100 µM | TGI [17]: 0.0923 µM | TGI [53]: > 100 µM | TGI [18]: > 100 µM | TGI [19]: 0.0121 µM and 0.0273 µM | TGI [20]: 0.25 µM and 1.45 µM | GI50 [21]: 0.042 µM | TGI [21]: > 100 µM | TGI [54]: 0.00496 µM | TGI [22]: 79.6 µM | TGI [23]: 41.6 µM | TGI [24]: 0.029 µM and 0.0576 µM | TGI [25]: 0.000577 µM | TGI [26]: > 100 µM | TGI [27]: 0.000499 µM | TGI [28]: > 100 µM | TGI [55]: > 100 µM | TGI [29]: 34 µM | TGI [56]: > 100 µM | GI50 [30]: 6.51 µM | TGI [30]: > 100 µM | GI50 [31]: 0.0464 µM | TGI [31]: 33.5 µM | TGI [57]: > 100 µM | TGI [32]: 0.0952 µM | TGI [33]: 0.108 µM | TGI [34]: 0.000572 µM | TGI [58]: 28.2 µM | GI50 [35]: 15 µM | TGI [35]: > 100 µM | TGI [36]: > 100 µM | TGI [37]: > 100 µM | TGI [38]: 0.000989 µM | TGI [39]: > 100 µM | TGI [40]: > 100 µM | GI50 [59]: 0.127 µM | TGI [59]: > 100 µM | GI50 [43]: 0.0119 µM | TGI [44]: > 100 µM | TGI [45]: 0.00072 µM | TGI [46]: > 100 µM | TGI [47]: > 100 µM | TGI [48]: > 100 µM
